We go through 21 molecules from publication PMC5011342, “A high throughput drug screening assay to identify compounds that promote oligodendrocyte differentiation using acutely dissociated and purified oligodendrocyte precursor cells” (BMC Research Notes, 2016).

“And” between values parts separate entries of the source, which are not always exact repeats. Identical values can stand only once. Counter-ions that a name gives are not always drawn. Like-named read-outs stand apart in the source and are kept apart here. Starred links: 1 amine or outer side, 2 acyl side, 3 side chain; linkers in the order of their positions; H or OH if unused. Positions of bridges follow the written chain, without caps; N, C: chain ends. Non-standard residues stand in square brackets, D forms with d. Residues, ends and D or L forms follow the SMILES beside them. Chains are numbered I, II in the order given. Actinocin(9to1) = Cc1c2oc3c(C)ccc(C(=O)[*:1])c3nc-2c(C(=O)[*:2])c(N)c1=O; NMeV = CN[C@H](C(=O)O)C(C)C; Sar = CNCC(=O)O

In the series the test system is expanded OPCs. The series can be described thus: cells. The settings on record: for viability at 0.1 µM / viability at 1 µM / viability at 10 µM: Rattus norvegicus, 72 h. As for the experimental part: Having established a consistent assay for measuring OL differentiation in vitro, the next step was to utilize this assay to assess the ability of a wide array of compounds to promote OL differentiation. Prior to library screening, we first established the maximum non-toxic dose of each compound in the library. […] Therefore, we added each compound in the NIH clinical collection (NCC) library to OPCs at 10, 1, and 0.1 µM concentrations. Three days later, we assessed viability of the treated cells by measuring AlamarBlue fluorescence, a measure of cell viability (see “Methods” section). […] Appropriately, we established three sets of screening concentrations for library compounds: non-toxic compounds were tested at 10 and 2 µM, slightly toxic compounds (only toxic at 10 µM) were tested at 2 and 0.4 µM, and very toxic compounds were tested at 0.4 and 0.08 µM.
OPCs were expanded in vitro by seeding into PDL-coated tissue culture flasks at 1000–2000 cells/cm^2 in differentiation media supplemented with 10 ng/ml PDGF-AA. Proliferating OPCs were fed every 2–3 days and supplemented with 2–3× concentration of PDGF as needed to prevent OPC differentiation. After 6–7 days of proliferation, OPCs were harvested by trypsinization, plated into PDL-coated 96-well Falcon plates and centrifuged at 200×g to facilitate cell attachment, survival, and even distribution of cells. Expanded OPCs were seeded in differentiation media at 10,000 cells/well and incubated for 2 h at 37 °C, 10 % CO2 prior to addition of compounds. The NCC library was diluted and added to cells at 10, 1, and 0.1 µM; each concentration was tested in quadruplicate. As a positive control for the induction of toxicity, 5 ng/ml tunicamycin was added to 8 wells in each plate. Three days later, a 1:10 dilution of alamarBlue® (AB) was added to each well and cells were incubated 4 h at 37 °C, 10 % CO2. AB fluorescence was measured using a PerkinElmer Victor II fluorescence microplate reader (PerkinElmer, Waltham, MA) with 560 nm excitation/590 nm emission filters. For library screening, the highest concentration of each compound was adjusted to a minimally toxic concentration based on this toxicity data. Compounds were additionally tested at a second concentration that was 1/5th of the top concentration. The final concentration of DMSO in each well was 0.1 %.

Where [1] appears, read: alamarBlue viability of expanded OPCs, compound at 0.1 µM, relative to DMSO control.
Where [2] appears, read: alamarBlue viability of expanded OPCs, compound at 1 µM, relative to DMSO control.
Setting [3] is: alamarBlue viability of expanded OPCs, compound at 10 µM, relative to DMSO control.
[4] abbreviates: read-out: 0.1 µM (% DMSO), alamarBlue viability of expanded OPCs, compound at 0.1 µM, sheet All Tox data.
The mark [5] stands for this setting: read-out: 1 µM (% DMSO), alamarBlue viability of expanded OPCs, compound at 1 µM, sheet All Tox data.
[6] abbreviates: read-out: 10 µM (% DMSO), alamarBlue viability of expanded OPCs, compound at 10 µM, sheet All Tox data.
Where [7] appears, read: alamarBlue viability, NCC library compound at 0.1 µM, sheet "All Tox data".
Where [8] appears, read: alamarBlue viability, NCC library compound at 1 µM, sheet "All Tox data".
The mark [9] stands for this setting: alamarBlue viability, NCC library compound at 10 µM, sheet "All Tox data".
[10] abbreviates: read-out: 0.1 µM (% DMSO), alamarBlue viability, NCC library compound at 0.1 µM, sheet "All Tox data".
Where [11] appears, read: read-out: 1 µM (% DMSO), alamarBlue viability, NCC library compound at 1 µM, sheet "All Tox data".
Where [12] appears, read: read-out: 10 µM (% DMSO), alamarBlue viability, NCC library compound at 10 µM, sheet "All Tox data".

`COc1cccc2c1C(=O)c1c(O)c3c(c(O)c1C2=O)C[C@@](O)(C(=O)CO)C[C@@H]3O[C@H]1C[C@H](N)[C@H](O)[C@H](C)O1` [Adriamycin]: the “0.1 µM (% DMSO)” value under setting [1] is listed as 9.9 % DMSO and the “0.1 µM (% DMSO)” value (alamarBlue viability of expanded OPCs, compound at 0.1 µM, sheet All Tox data) is 84.2 % DMSO. The “1 µM (% DMSO)” value stood at 9.6 % DMSO under setting [2] and 11.2 % DMSO (alamarBlue viability of expanded OPCs, compound at 1 µM, sheet All Tox data). Moreover, the “10 µM (% DMSO)” value stood at 7.8 % DMSO under setting [3] and 11.9 % DMSO (alamarBlue viability of expanded OPCs, compound at 10 µM, sheet All Tox data).

`Nc1ncnc2c1ncn2[C@@H]1O[C@H](CO)C[C@H]1O` [Cordycepin]: under setting [4], the viability at 0.1 µM stood at 71.9%. Also, under setting [5], the viability at 1 µM amounted to 38.3%. Further, the viability at 10 µM under setting [6] turned out to be 16%.

For `C[C@]12CCC(=O)C=C1CC[C@@H]1[C@@H]2C(=O)C[C@@]2(C)[C@H]1CC[C@]2(O)C(=O)CO` [Cortisone], the “0.1 µM (% DMSO)” value under setting [7] amounted to 99.5 % DMSO. Besides, under setting [8], the “1 µM (% DMSO)” value was 105.4 % DMSO. The “10 µM (% DMSO)” value under setting [9] amounted to 105.4 % DMSO.

With `Cc1c2oc3c(C)ccc(C(=O)N[C@@H]4C(=O)N[C@H](C(C)C)C(=O)N5CCC[C@H]5C(=O)N(C)CC(=O)N(C)[C@@H](C(C)C)C(=O)O[C@@H]4C)c3nc-2c(C(=O)N[C@@H]2C(=O)N[C@H](C(C)C)C(=O)N3CCC[C@H]3C(=O)N(C)CC(=O)N(C)[C@@H](C(C)C)C(=O)O[C@@H]2C)c(N)c1=O` [Dactinomycin] (I: T[dV]P[Sar][NMeV] / II: T[dV]P[Sar][NMeV]; ester I:1-I:C, II:1-II:C; linker I:N-II:N via Actinocin(9to1)), the viability at 0.1 µM (read-out: 0.1 µM (% DMSO)) was 10.2%. Besides, the viability at 1 µM (read-out: 1 µM (% DMSO)) came to 11.1%. For the same molecule, the viability at 10 µM (read-out: 10 µM (% DMSO)) stood at 12.2%.

On to `COc1cccc2c1C(=O)c1c(O)c3c(c(O)c1C2=O)C[C@@](O)(C(=O)CO)C[C@@H]3O[C@H]1C[C@H](N)[C@H](O)[C@H](C)O1` [Doxorubicin], for which, under setting [4], the viability at 0.1 µM stood at 86.2%. Also, under setting [5], the viability at 1 µM came out at 11%. For the same molecule, the viability at 10 µM under setting [6] worked out at 13.4%.

With `C[C@]12CCC(=O)C=C1CC[C@@H]1[C@@H]2[C@@H](O)C[C@@]2(C)[C@H]1CC[C@]2(O)C(=O)CO` [Hydrocortisone], the “0.1 µM (% DMSO)” value under setting [1] is 122.3 % DMSO and 114.4 % DMSO. The “1 µM (% DMSO)” value under setting [2] is 115.5 % DMSO and 108.5 % DMSO. For the same molecule, the “10 µM (% DMSO)” value under setting [3] is 113.8 % DMSO and 107.0 % DMSO.

For the molecule `CC(=O)[C@]1(O)Cc2c(O)c3c(c(O)c2[C@@H](O[C@H]2C[C@H](N)[C@H](O)[C@H](C)O2)C1)C(=O)c1ccccc1C3=O` [Idarubicin], the viability at 0.1 µM under setting [4] came to 13.9%. Besides, the viability at 1 µM under setting [5] came out at 10.9%. For the same molecule, the viability at 10 µM under setting [6] was 11.4%.

On to `Cc1ccc(NC(=O)c2ccc(CN3CCN(C)CC3)cc2)cc1Nc1nccc(-c2cccnc2)n1` [Imatinib mesylate], for which the viability at 0.1 µM under setting [10] was 93.7%. Besides, the viability at 1 µM under setting [11] is 70.5%. The viability at 10 µM under setting [12] was found to be 18%.

Turning to `CN(C)CCCN1c2ccccc2CCc2ccccc21` [Imipramine], the viability at 0.1 µM under setting [10] worked out at 79.4%. Further, the viability at 1 µM under setting [11] was found to be 61.9%. Moreover, the viability at 10 µM under setting [12] stood at 30.6%.

On to `O=C1c2c(O)ccc(O)c2C(=O)c2c(NCCNCCO)ccc(NCCNCCO)c21` [Mitoxantrone], for which, under setting [1], the “0.1 µM (% DMSO)” value is recorded as 9.7 % DMSO. Also, the “1 µM (% DMSO)” value under setting [2] is 9.0 % DMSO. For the same molecule, the “10 µM (% DMSO)” value under setting [3] worked out at 7.8 % DMSO.

With `Cc1ccccc1C(OCCN(C)C)c1ccccc1` (stereo not drawn) [Orphenadrine], under setting [1], the “0.1 µM (% DMSO)” value was 86.1 % DMSO and 95.1 % DMSO. The “1 µM (% DMSO)” value under setting [2] is 67.2 % DMSO and 74.3 % DMSO. Further, under setting [3], the “10 µM (% DMSO)” value was 47.8 % DMSO and 50.8 % DMSO.

With `COc1cc([C@@H]2c3cc4c(cc3[C@H](O)[C@H]3COC(=O)[C@H]23)OCO4)cc(OC)c1OC` [Podophyllotoxin], the “0.1 µM (% DMSO)” value under setting [1] came to 14.8 % DMSO. Also, the “1 µM (% DMSO)” value under setting [2] amounted to 10.6 % DMSO. For the same molecule, under setting [3], the “10 µM (% DMSO)” value stood at 9.1 % DMSO.

Turning to `CCCN[C@H]1CCc2nc(N)sc2C1` [Pramipexole], under setting [4], the viability at 0.1 µM was 88.8%. Moreover, under setting [5], the viability at 1 µM came out at 92.5%. For the same molecule, the viability at 10 µM under setting [6] stood at 96%.

`COc1cc2nc(N3CCN(C(=O)c4ccco4)CC3)nc(N)c2cc1OC` [Prazosin]: the viability at 0.1 µM under setting [4] amounted to 80.9%. The viability at 1 µM under setting [5] was 87.6%. Moreover, the viability at 10 µM under setting [6] is 13.1%.

In the case of `CC(C)CC(N(C)C)C1(c2ccc(Cl)cc2)CCC1` (stereo not drawn) [Sibutramine], the viability at 0.1 µM under setting [10] worked out at 88.3%. Further, under setting [11], the viability at 1 µM was 84%. Also, under setting [12], the viability at 10 µM was found to be 84.4%.

Take `Cc1cc(NS(=O)(=O)c2ccc(N)cc2)no1` [Sulfamethoxazole]: the viability at 0.1 µM under setting [10] was found to be 90.6%. Moreover, under setting [11], the viability at 1 µM is 96.3%. Also, the viability at 10 µM under setting [12] came out at 96.5%.

Regarding `C[C@]12CC[C@H]3[C@@H](CCC4=CC(=O)CC[C@@]43C)[C@@H]1CC[C@@H]2O` [Testosterone], the viability at 0.1 µM (read-out: 0.1 µM (% DMSO)) was determined as 88.4%. For the same molecule, under “read-out: 1 µM (% DMSO)”, the viability at 1 µM worked out at 87.4%. Under “read-out: 10 µM (% DMSO)”, the viability at 10 µM is 86.2%. Under “rat”, the “0.1 µM (% DMSO)” value amounted to 87.3 % DMSO, the “1 µM (% DMSO)” value is given as 87.6 % DMSO and the “10 µM (% DMSO)” value was determined as 84.8 % DMSO.

`Clc1ccccc1CN1CCc2sccc2C1` [Ticlopidine]: the viability at 0.1 µM under setting [4] was 107%. For the same molecule, the viability at 1 µM under setting [5] amounted to 103%. In addition, under setting [6], the viability at 10 µM is 90.3%.

Turning to `COc1ccc(CCN(C)CCCC(C#N)(c2ccc(OC)c(OC)c2)C(C)C)cc1OC` (stereo not drawn) [Verapamil], the viability at 0.1 µM (read-out: 0.1 µM (% DMSO)) turned out to be 84.5%. The viability at 1 µM (read-out: 1 µM (% DMSO)) is 92.8%. The viability at 10 µM (read-out: 10 µM (% DMSO)) was determined as 43%.

For `CC[C@]1(O)C[C@H]2CN(CCc3c([nH]c4ccccc34)[C@@](C(=O)OC)(c3cc4c(cc3OC)N(C=O)[C@H]3[C@@](O)(C(=O)OC)[C@H](OC(C)=O)[C@]5(CC)C=CCN6CC[C@]43[C@@H]65)C2)C1` [Vincristine], the viability at 0.1 µM under setting [10] is 17.4%. For the same molecule, the viability at 1 µM under setting [11] came to 11.1%. Further, the viability at 10 µM under setting [12] worked out at 9%.

Turning to Medroxyprogesterone, the “0.1 µM (% DMSO)” value under setting [7] worked out at 117.3 % DMSO. Also, under setting [8], the “1 µM (% DMSO)” value amounted to 126.7 % DMSO. In addition, the “10 µM (% DMSO)” value under setting [9] is on record as 141.4 % DMSO.
